Laboratory results from ChEMBL document CHEMBL5143521, “Identification of a selective BRD4 PROTAC with potent antiproliferative effects in AR-positive prostate cancer based on a dual BET/PLK1 inhibitor” (Eur J Med Chem, 2022).
Activity calls are given as the source filed them. No cut-off for these calls is given here.

Columns and labels:
MV4-11 = assay: Antiproliferative activity against human MV4-11 cells assessed as reduction in cell viability measured after 4 days by MTT assay; format: functional, cell-based; conditions: MV4-11, 96 h
[1] = biological target: Serine/threonine-protein kinase PLK1 (Homo sapiens, UniProt P53350); assay: Inhibition of recombinant full length human PLK1 using casein as substrate incubated for 40 mins in presence of [gamma-33P]-ATP by radiometric scintillation counting method
[2] = biological target: Bromodomain-containing protein 4 (Homo sapiens, UniProt O60885); assay: Inhibition of BRD4 (unknown origin) by alpha-screen assay
CWR22R [3] = assay: Induction of cell cycle arrest in AR-positive human 22Rv1 cells assessed as downregulation of cyclin D1 expression at 1 to 3 uM measured after 72 hrs by Western blot analysis; format: functional, cell-based; conditions: dose 1-3 µM
CWR22R [4] = assay: Induction of cell cycle arrest in AR-positive human 22Rv1 cells assessed as upregulation of cyclin B1 expression at 1 to 3 uM measured after 72 hrs by Western blot analysis; format: functional, cell-based; conditions: dose 1-3 µM
VCaP [5] = assay: Antiproliferative activity against AR-positive human VCaP cells assessed as reduction in cell viability measured after 4 days by MTT assay; format: functional, cell-based; conditions: 96 h
LNCaP [6] = assay: Antiproliferative activity against AR-positive harmone sensitive human LNCaP cells assessed as reduction in cell viability at 1 nM incubated for 3 days followed by compound washout and measured after 8 days; format: functional; conditions: 72 h, time 3 day
CWR22R [7] = assay: Induction of cell cycle arrest in AR-positive human 22Rv1 cells assessed as downregulation of cyclin E expression at 1 to 3 uM measured after 72 hrs by Western blot analysis; format: functional, cell-based; conditions: dose 1-3 µM
CWR22R [8] = assay: Antiproliferative activity against AR-positive human 22Rv1 cells assessed as reduction in cell viability measured after 4 days by MTT assay; format: functional, cell-based; conditions: 22Rv1, 96 h
PC-3 [9] = assay: Antiproliferative activity against AR-negative human castration resistant PC-3 cells assessed as reduction in cell viability measured after 4 days by MTT assay; format: functional, cell-based; conditions: PC-3, 96 h
DU-145 [10] = assay: Inhibition of colony formation in AR-negative human castration resistant DU-145 cells at 1 nM measured after 12 days by crystal violet staining based assay; format: functional, cell-based; conditions: time 12.0 day
CWR22R [11] = assay: Inhibition of colony formation in AR-positive human 22Rv1 cells at 1 nM measured after 12 days by crystal violet staining based assay; format: functional, cell-based; conditions: time 12.0 day
CWR22R [12] = assay: Induction of cell cycle arrest in AR-positive human 22Rv1 cells assessed as downregulation of CDK2 expression at 1 to 3 uM measured after 72 hrs by Western blot analysis; format: functional, cell-based; conditions: dose 1-3 µM
LNCaP [13] = assay: Antiproliferative activity against AR-positive harmone sensitive human LNCaP cells assessed as reduction in cell viability measured after 4 days by MTT assay; format: functional, cell-based; conditions: 96 h
PC-3 [14] = assay: Inhibition of colony formation in AR-negative human castration resistant PC-3 cells at 1 nM measured after 12 days by crystal violet staining based assay; format: functional, cell-based; conditions: time 12.0 day
CWR22R [15] = assay: Induction of cell cycle arrest in AR-positive human 22Rv1 cells assessed as accumulation of cells at G2/M phase at 1 to 3 uM measured after 72 hrs by flow cytometry analysis; format: functional, cell-based; conditions: dose 1-3 µM
DU-145 [16] = assay: Antiproliferative activity against AR-negative human castration resistant DU-145 cells assessed as reduction in cell viability measured after 4 days by MTT assay; format: functional, cell-based; conditions: DU-145, 96 h
CWR22R [17] = assay: Antiproliferative activity against AR-positive human 22Rv1 cells assessed as reduction in cell viability at 1 nM incubated for 3 days followed by compound washout and measured after 8 days; format: functional; conditions: 22Rv1, 72 h, time 3 day
DU-145 [18] = assay: Antiproliferative activity against negative human castration resistant DU-145 cells assessed as reduction in cell viability at 1 nM incubated for 3 days followed by compound washout and measured after 8 days; format: functional, cell-based; conditions: time 3.0 day
CWR22R [19] = assay: Induction of cell cycle arrest in AR-positive human 22Rv1 cells assessed as downregulation of CDK6 expression at 1 to 3 uM measured after 72 hrs by Western blot analysis; format: functional, cell-based; conditions: dose 1-3 µM
VCaP [20] = assay: Inhibition of c-Myc expression level in human VCap cells at 10 nM incubated for 24 hrs by immunoblotting analysis; format: functional, cell-based
[21] = biological target: Protein cereblon/Bromodomain-containing protein 4 (Homo sapiens) (UniProt O60885+Q96SW2); assay: Protac activity at BRD4/CRBN in human VCaP cells assessed as degradation of BRD4 by measuring downregulation of BRD4 expression level at 10 nM incubated for 24 hrs by immunoblotting analysis; format: cell-based
Sequence of Protein cereblon/Bromodomain-containing protein 4 (Homo sapiens) (Q96SW2 whole entry, looked up, other chains not shown): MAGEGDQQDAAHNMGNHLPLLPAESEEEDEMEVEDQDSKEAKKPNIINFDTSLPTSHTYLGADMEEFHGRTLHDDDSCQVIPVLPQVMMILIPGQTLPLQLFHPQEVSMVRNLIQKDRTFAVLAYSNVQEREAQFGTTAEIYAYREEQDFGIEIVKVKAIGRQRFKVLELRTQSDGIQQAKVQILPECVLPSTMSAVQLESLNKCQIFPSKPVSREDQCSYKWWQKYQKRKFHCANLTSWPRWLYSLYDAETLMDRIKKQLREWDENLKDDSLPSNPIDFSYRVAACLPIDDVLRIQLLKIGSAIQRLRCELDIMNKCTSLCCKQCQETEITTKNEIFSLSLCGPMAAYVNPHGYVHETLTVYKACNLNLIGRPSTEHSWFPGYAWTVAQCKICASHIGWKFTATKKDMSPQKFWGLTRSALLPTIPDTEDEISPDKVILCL

Sequence of Serine/threonine-protein kinase PLK1 (P53350 whole entry): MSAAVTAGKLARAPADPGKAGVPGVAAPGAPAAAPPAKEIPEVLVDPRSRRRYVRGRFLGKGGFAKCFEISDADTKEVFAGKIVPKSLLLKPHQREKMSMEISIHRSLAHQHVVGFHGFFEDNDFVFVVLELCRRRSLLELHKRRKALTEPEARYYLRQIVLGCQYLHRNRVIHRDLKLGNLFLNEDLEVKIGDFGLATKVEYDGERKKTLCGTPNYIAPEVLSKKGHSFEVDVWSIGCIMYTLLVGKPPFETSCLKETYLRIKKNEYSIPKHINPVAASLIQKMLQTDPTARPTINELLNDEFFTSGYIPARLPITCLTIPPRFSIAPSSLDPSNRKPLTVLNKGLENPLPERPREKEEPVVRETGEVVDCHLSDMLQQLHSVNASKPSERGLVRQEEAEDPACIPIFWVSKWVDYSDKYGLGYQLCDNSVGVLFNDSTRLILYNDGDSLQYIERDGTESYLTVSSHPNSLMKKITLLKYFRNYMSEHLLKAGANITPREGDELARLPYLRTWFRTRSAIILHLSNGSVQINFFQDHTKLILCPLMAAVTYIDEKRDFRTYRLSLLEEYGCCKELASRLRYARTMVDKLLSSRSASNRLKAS

SMILES	IC50 (MV4-11)	IC50 [1]	IC50 [2]	also measured
CC[C@@H]1c2nnc(C)n2-c2cnc(Nc3ccc(C(=O)NC4CCN(C(=O)CCCCCCC(=O)Nc5cccc6c5CN(C5CCC(=O)NC5=O)C6=O)CC4)cc3OC)nc2N1CC1CCCCC1 (some centres not stated)	671 nM	652 nM	190 nM	–
CC[C@@H]1c2nnc(C)n2-c2cnc(Nc3ccc(C(=O)NC4CCN(C(=O)CCCCCOc5cccc6c5C(=O)N(C5CCC(=O)NC5=O)C6=O)CC4)cc3OC)nc2N1CC1CCCCC1 (some centres not stated)	7 nM	1230 nM	435 nM	–
CC[C@@H]1c2nnc(C)n2-c2cnc(Nc3ccc(C(=O)NC4CCN(CCCCCCCCCCOc5cccc6c5C(=O)N(C5CCC(=O)NC5=O)C6=O)CC4)cc3OC)nc2N1CC1CCCCC1 (some centres not stated)	153 nM	5570 nM	284 nM	–
CC[C@@H]1c2nnc(C)n2-c2cnc(Nc3ccc(C(=O)NC4CCN(C(=O)CCCCNc5cccc6c5CN(C5CCC(=O)NC5=O)C6=O)CC4)cc3OC)nc2N1CC1CCCCC1 (some centres not stated)	753 nM	1340 nM	311 nM	–
CC[C@@H]1c2nnc(C)n2-c2cnc(Nc3ccc(C(=O)NC4CCN(C(=O)CCCCCNc5cccc6c5CN(C5CCC(=O)NC5=O)C6=O)CC4)cc3OC)nc2N1CC1CCCCC1 (some centres not stated)	10 nM	1210 nM	288 nM	–
CC[C@@H]1c2nnc(C)n2-c2cnc(Nc3ccc(C(=O)NC4CCN(C(=O)CNc5cccc6c5CN(C5CCC(=O)NC5=O)C6=O)CC4)cc3OC)nc2N1CC1CCCCC1 (some centres not stated)	18 nM	1980 nM	259 nM	–
CC[C@@H]1c2nnc(C)n2-c2cnc(Nc3ccc(C(=O)NC4CCN(C)CC4)cc3OC)nc2N1CC1CCCCC1	–	–	–	Activity (CWR22R [3]): Active; Activity (CWR22R [4]): Active; IC50 (VCaP [5]): 628 nM; inhibition at 0.001 µM (LNCaP [6]): 100%; Activity (CWR22R [7]): Active; IC50 (CWR22R [8]): 580 nM; IC50 (PC-3 [9]): 1400 nM; inhibition (DU-145 [10]): Active; inhibition (CWR22R [11]): Active; Activity (CWR22R [12]): Active; IC50 (LNCaP [13]): 1450 nM; inhibition (PC-3 [14]): Active; Activity (CWR22R [15]): Active; IC50 (DU-145 [16]): 1460 nM; inhibition at 0.001 µM (CWR22R [17]): 100%; inhibition (DU-145 [18]): Active; Activity (CWR22R [19]): Active
CC[C@@H]1c2nnc(C)n2-c2cnc(Nc3ccc(C(=O)NC4CCN(CCCCCCCCCCCOc5cccc6c5C(=O)N(C5CCC(=O)NC5=O)C6=O)CC4)cc3OC)nc2N1CC1CCCCC1 (some centres not stated)	188 nM	3820 nM	379 nM	–
CC[C@@H]1c2nnc(C)n2-c2cnc(Nc3ccc(C(=O)NC4CCN(C(=O)CCCOc5cccc6c5C(=O)N(C5CCC(=O)NC5=O)C6=O)CC4)cc3OC)nc2N1CC1CCCCC1 (some centres not stated)	18 nM	788 nM	738 nM	–
CC[C@@H]1c2nnc(C)n2-c2cnc(Nc3ccc(C(=O)NC4CCN(C(=O)CCCCCCOc5cccc6c5C(=O)N(C5CCC(=O)NC5=O)C6=O)CC4)cc3OC)nc2N1CC1CCCCC1 (some centres not stated)	10 nM	1840 nM	658 nM	–

Now from value to compound, other results behind:

IC50 (MV4-11)	IC50 [1]	IC50 [2]	SMILES	also measured
359 nM	310 nM	219 nM	CC[C@@H]1c2nnc(C)n2-c2cnc(Nc3ccc(C(=O)NC4CCN(CCCCNC(=O)COc5cccc6c5C(=O)C(C5CCC(=O)NC5=O)C6=O)CC4)cc3OC)nc2N1CC1CCCCC1 (some centres not stated)	–
85 nM	5140 nM	344 nM	CC[C@@H]1c2nnc(C)n2-c2cnc(Nc3ccc(C(=O)NC4CCN(CCCCCCCCOc5cccc6c5C(=O)N(C5CCC(=O)NC5=O)C6=O)CC4)cc3OC)nc2N1CC1CCCCC1 (some centres not stated)	–
8 nM	1250 nM	209 nM	CC[C@@H]1c2nnc(C)n2-c2cnc(Nc3ccc(C(=O)NC4CCN(CCCCCCCOc5cccc6c5C(=O)N(C5CCC(=O)NC5=O)C6=O)CC4)cc3OC)nc2N1CC1CCCCC1 (some centres not stated)	inhibition (VCaP [20]): Active; Activity [21]: Active
21 nM	1120 nM	151 nM	CC[C@@H]1c2nnc(C)n2-c2cnc(Nc3ccc(C(=O)NC4CCN(CCCCCOc5cccc6c5C(=O)N(C5CCC(=O)NC5=O)C6=O)CC4)cc3OC)nc2N1CC1CCCCC1 (some centres not stated)	–
36 nM	2130 nM	225 nM	CC[C@@H]1c2nnc(C)n2-c2cnc(Nc3ccc(C(=O)NC4CCN(CCCCCCCCCOc5cccc6c5C(=O)N(C5CCC(=O)NC5=O)C6=O)CC4)cc3OC)nc2N1CC1CCCCC1 (some centres not stated)	–
13 nM	1190 nM	370 nM	CC[C@@H]1c2nnc(C)n2-c2cnc(Nc3ccc(C(=O)NC4CCN(C(=O)CCCCOc5cccc6c5C(=O)N(C5CCC(=O)NC5=O)C6=O)CC4)cc3OC)nc2N1CC1CCCCC1 (some centres not stated)	–
184 nM	2430 nM	121 nM	CC[C@@H]1c2nnc(C)n2-c2cnc(Nc3ccc(C(=O)NC4CCN(CCCCCCOc5cccc6c5C(=O)N(C5CCC(=O)NC5=O)C6=O)CC4)cc3OC)nc2N1CC1CCCCC1 (some centres not stated)	–
